Read-outs that look alike come from different tables or passages of the source.
Key:
[1] = cited from earlier work
[2] = Stability of analytes in stored plasma samples; conditions: −80 °C, rat plasma
[3] = for AUC0–t / AUC0–∞ / CL/F (apparent clearance) / Cmax / Tmax / Vd/F / t1/2: rats, mean ± SEM
[4] = oral suspension (40 mg/ml), 7 days, participants; cited from earlier work
[5] = test system: rat liver microsomal NFO activity (CYP3A); test: Inhibition of rat liver microsomal nifedipine oxidation; type: in vitro ADME; conditions: 100 μM, 10-min NADPH-fortified pre-incubation
[6] = S. Chinese remedy-treated rats; cited from earlier work
[7] = oral nifedipine 3 mg/kg 1 h after SY 0.95 g/kg
[8] = oral nifedipine 3 mg/kg 1 h after SY […]
[9] = oral nifedipine 3 mg/kg together with ketoconazole 30 mg/kg
[10] = oral nifedipine 3 mg/kg, control

COC(=O)c1c(C)nc(C)c(C(=O)OC)c1-c1ccccc1[N+](=O)[O-] [Dehydronifedipine, dehydronifedipine]
AUC ratio of the dehydronifedipine to nifedipine ([1]; rats treated with nifedipine suspension (in water)): 38%
half-life (terminal) ([1]; rats, nifedipine suspended in water (10 mg/ml), oral dose 10 mg/kg): 15.7 h
AUC0–t ratio of dehydronifedipine to nifedipine ([1]; rats, ref 6 (Han et al.)): 2.7 ± 0.3%
14-day stability in plasma samples [2]: 99.6–100.8%
AUC0–t ratio of dehydronifedipine to nifedipine ([3]; control rats, oral nifedipine 3 mg/kg in 50% PEG 400): 2.7 ± 0.5%
AUC0–t [3, 7]: 0.11 ± 0.01 µg·h/mL
AUC0–∞ [3, 7]: 0.13 ± 0.02 µg·h/mL
CL/F (apparent clearance) [3, 7]: 405 ± 53.3 mL/min/kg
Cmax [3, 7]: 50 ± 10 ng/mL
Tmax [3, 7]: 0.29 ± 0.05 h
Vd/F [3, 7]: 61.0 ± 13.3 L/kg
t1/2 [3, 7]: 1.9 ± 0.5 h
AUC0–t [3, 8]: 0.13 ± 0.02 µg·h/mL
AUC0–∞ [3, 8]: 0.24 ± 0.04 µg·h/mL
CL/F (apparent clearance) [3, 8]: 253 ± 55 mL/min/kg
Cmax [3, 8]: 40 ± 0 ng/mL
Tmax [3, 8]: 0.58 ± 0.08 h
Vd/F [3, 8]: 89.7 ± 14.4 L/kg
t1/2 [3, 8]: 4.8 ± 0.8 h
AUC0–t [3, 9]: 0.46 ± 0.11 ^* h·μg/ml
AUC0–∞ [3, 9]: 1.77 ± 0.53 ^* h·μg/ml
CL/F (apparent clearance) [3, 9]: 43.3 ± 16.7 mL/min/kg
Cmax [3, 9]: 100 ± 20 ng/mL
Tmax [3, 9]: 1.80 ± 0.55 h
Vd/F [3, 9]: 34.3 ± 7.4 L/kg
t1/2 [3, 9]: 12.3 ± 3.9 h
AUC0–t [3, 10]: 0.12 ± 0.02 µg·h/mL
AUC0–∞ [3, 10]: 0.14 ± 0.02 µg·h/mL
CL/F (apparent clearance) [3, 10]: 395 ± 48.3 mL/min/kg
Cmax [3, 10]: 40 ± 10 ng/mL
Tmax [3, 10]: 0.70 ± 0.12 h
Vd/F [3, 10]: 68.9 ± 9.0 L/kg
t1/2 [3, 10]: 2.0 ± 0.1 h

CC[C@@H]([C@H](C)O)n1ncn(-c2ccc(N3CCN(c4ccc(OC[C@@H]5CO[C@@](Cn6cncn6)(c6ccc(F)cc6F)C5)cc4)CC3)cc2)c1=O [posaconazole]
mean Cmax at 200 mg 4 times daily relative to 400 mg twice daily [4]: 2 fold

COc1cc2c(c(OC)c1OC)-c1c(cc(OC)c(OC)c1OC)C[C@H](C)[C@H](C)C2 [schisandrin A]
decrease of NFO activity [5]: 48%

COc1cc2c(c(OC)c1OC)-c1c(cc3c(c1OC)OCO3)CC(C)C(C)C2 (stereo not drawn) [schisandrin B]
Tmax [6]: about 4 h
